Assay results from ChEMBL document CHEMBL3399921, “Novel 2-(2-phenalkyl)-1H-benzo[d]imidazoles as antitubercular agents. Synthesis, biological evaluation and structure-activity relationship” (Bioorg Med Chem, 2015).
Converted amounts (≈) assume the structure as drawn.

system: Mycobacterium tuberculosis variant bovis; test: Tuberculostatic activity against Mycobacterium bovis by two-fold classical test-tube method; type: functional

SMILES | MIC
Nc1c(NC(=O)CCc2cc(Cl)cc(Cl)c2)cc(Cl)cc1[N+](=O)[O-] | 65 µM (≈ 25.3 µg/mL)
Cc1cc2nc(CCc3ccccc3)[nH]c2cc1C | 6.3 µM (≈ 1.58 µg/mL)
Cc1cc2nc(CCc3cc(Cl)cc(Cl)c3)[nH]c2cc1C | 19 µM (≈ 6.07 µg/mL)
